Experimental data as given in patent US20060223837A1 (priority 2005, published 2006).

Target: T1, human VR1 (Homo sapiens, UniProt Q8NER1)
T1 construct: expressed in transfected cells; host or cells: HEK293
Assay: Human VR1 functional assay (FLIPR intracellular Ca2+)
Assay type: cell-based
Details: for IC50: antagonism of capsaicin-induced Ca2+ increase, read-out: h IC50; for inhibition at 5 µM: read-out: h % I (5 μM); for inhibition at 1 µM: read-out: h % I (1 μM)
Experimental: The functional activity of the test compounds was determined by measuring changes in intracellular calcium concentration using a Ca^2+-sensitive fluorescent dye and FLIPR™ technology. Increases in Ca^2+ concentration were readily detected upon challenge with capsaicin. HEK293 Cells expressing human VR1 were grown on poly-D-lysine coated 384 well black-walled plates (BD 354663) and 1 day later loaded with Calcium 3 Dye for 35 min at 37 C, 5% CO2 and then for 25 min at room temperature, and subsequently tested for agonist-induced increases in intracellular Ca^2+ levels using FLIPR™ technology. Cells were challenged with test compounds (at varying concentrations, which are indicated in parentheses in the heading of the table below) and intracellular Ca^2+ was measured for 5 min prior to the addition of capsaicin to all wells to achieve a final concentration of eliciting an approximate 80% maximal response ([…]). EC50 or IC50 values were determined from dose-response studies. Curves were generated using the average of quadruplicate wells for each data point.

[1] = inhibition of capsaicin response

T1 sequence (Q8NER1 whole entry): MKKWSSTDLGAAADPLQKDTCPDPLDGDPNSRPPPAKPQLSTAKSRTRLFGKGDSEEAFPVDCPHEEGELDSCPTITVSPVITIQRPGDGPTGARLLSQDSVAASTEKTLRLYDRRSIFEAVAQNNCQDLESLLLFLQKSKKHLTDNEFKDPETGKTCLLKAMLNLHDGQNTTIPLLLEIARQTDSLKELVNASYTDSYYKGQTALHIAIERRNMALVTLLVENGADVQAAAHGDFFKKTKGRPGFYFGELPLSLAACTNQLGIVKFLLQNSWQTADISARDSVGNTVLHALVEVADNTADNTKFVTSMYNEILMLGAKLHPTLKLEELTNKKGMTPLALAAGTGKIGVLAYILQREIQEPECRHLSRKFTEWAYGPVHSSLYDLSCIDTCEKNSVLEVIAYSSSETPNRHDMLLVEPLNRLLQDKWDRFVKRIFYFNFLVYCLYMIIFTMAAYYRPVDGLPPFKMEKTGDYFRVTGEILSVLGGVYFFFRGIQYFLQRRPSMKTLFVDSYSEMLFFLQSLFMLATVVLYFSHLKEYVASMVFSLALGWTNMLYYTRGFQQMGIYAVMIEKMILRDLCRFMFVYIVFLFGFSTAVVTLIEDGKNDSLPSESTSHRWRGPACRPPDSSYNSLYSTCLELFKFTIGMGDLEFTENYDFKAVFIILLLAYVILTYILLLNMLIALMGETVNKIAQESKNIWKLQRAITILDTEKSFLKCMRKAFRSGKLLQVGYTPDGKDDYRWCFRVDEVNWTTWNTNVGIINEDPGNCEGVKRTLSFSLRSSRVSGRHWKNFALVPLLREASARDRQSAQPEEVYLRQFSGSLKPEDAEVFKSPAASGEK

Structure (SMILES)	IC50 [nM]	h % I (1 μM) [1] [%]	further results
Cc1cc(NC(=O)CCc2ccc(F)cc2)cnc1-n1cnc(Cl)c1Cl [Cpd 280]		16	
Cc1cn(-c2ccc(NC(=O)CCc3ccc(SC(F)(F)F)cc3)cc2C(F)(F)F)cn1 [Cpd 219]	100		inhibition at 1 µM [1]: 100%
Cc1cc(NC(=O)CCc2ccc(F)c(F)c2)cnc1-n1cnc(Cl)c1Cl [Cpd 257]			inhibition at 1 µM [1]: 41%
Cc1cc(NC(=O)/C=C/c2ccc(C(F)(F)F)cn2)cnc1-n1cnc(Cl)c1Cl [Cpd 276]		19	
Cc1cc(NC(=O)CCc2ccc(C(F)(F)F)cc2)cnc1-n1ccnc1 [Cpd 247]	549		inhibition at 5 µM [1]: 97%
O=C(CCc1ccc(F)cc1)Nc1ccc(-n2ccnc2)c(C(F)(F)F)c1 [Cpd 279]		30	
O=C(CCc1ccc([S+]([O-])C(F)(F)F)cc1)Nc1ccc(-n2cnc(Cl)c2Cl)c(C(F)(F)F)c1 (centres unmarked) [Cpd 244]	452		inhibition at 1 µM [1]: 85%
Cc1cc(NC(=O)/C=C/c2ccc(SC(F)(F)F)cc2)cnc1-n1cnc(Cl)c1Cl [Cpd 275]		16	
O=C(CCc1ccc(C(F)(F)F)cn1)Nc1ccc(-n2cnc(Cl)c2Cl)c(C(F)(F)F)c1 [Cpd 248]	602		inhibition at 1 µM [1]: 83%
O=C(CCc1ccc(C(F)(F)F)cc1)Nc1ccc(-n2cnc3c2CCCC3)c(C(F)(F)F)c1 [Cpd 270, N-[4-(4,5,6,7-Tetrahydro-benzoimidazol-1-yl)-3-trifluoromethyl-phenyl]-3-(4-trifluoromethyl-phenyl)-propionamide]			inhibition at 1 µM [1]: 47%
CC(C)c1nccn1-c1ccc(NC(=O)CCc2ccc(C(F)(F)F)cc2)cc1C(F)(F)F [Cpd 268]		15	
O=C(CCc1ccc(C(F)(F)F)cc1)Nc1ccc(-n2cnc(C(F)(F)F)c2)c(C(F)(F)F)c1 [Cpd 238, 3-(4-Trifluoromethyl-phenyl)-N-[3-trifluoromethyl-4-(4-trifluoromethyl-imidazol-1-yl)-phenyl]-propionamide]	340		inhibition at 1 µM [1]: 100%
Cc1cc(NC(=O)CCc2ccc(C(F)(F)F)cn2)cnc1-n1cnc(Cl)c1Cl [Cpd 278]		36	
O=C(CCc1ccc(C(F)(F)F)cc1)Nc1ccc(-n2ccc3ccccc32)c(C(F)(F)F)c1 [Cpd 269]		21	
O=C(CCc1ccc(F)c(F)c1)Nc1ccc(-n2ccnc2)c(C(F)(F)F)c1 [Cpd 256]			inhibition at 1 µM [1]: 42%
CC(C)(C)c1ccc(CCC(=O)Nc2cc(F)c(-c3ccc(O)cc3)c(F)c2)cc1 [Cpd 90]			% Response Relative to EC80 of Capsaicin (6 μM) (agonist response, 6 μM): 17%
Cc1cc(NC(=O)/C=C/c2ccc([S+]([O-])C(F)(F)F)cc2)cnc1-n1cnc(Cl)c1Cl (centres unmarked) [Cpd 274]		18	
Cc1cc(NC(=O)CCc2ccc([S+]([O-])C(F)(F)F)cc2)cnc1-n1cnc(Cl)c1Cl (centres unmarked) [Cpd 273]		36	

Structure (SMILES)	IC50 [nM]	h % I (1 μM) [1] [%]	further results
Cc1nc(-c2ccc(NC(=O)CCc3ccc(C(F)(F)F)cc3)cc2C(F)(F)F)no1 [Cpd 266, N-[4-(5-Methyl-[1,2,4]oxadiazol-3-yl)-3-trifluoromethyl-phenyl]-3-(4-trifluoromethyl-phenyl)-propionamide]			inhibition at 1 µM [1]: 47%; inhibition at 5 µM [1]: 64%
Cc1cn(-c2ccc(NC(=O)CCc3ccc([S+]([O-])C(F)(F)F)cc3)cc2C(F)(F)F)cn1 (centres unmarked) [Cpd 222]	137		inhibition at 1 µM [1]: 100%
CC(C)(C)c1ccc(CCC(=O)Nc2ccc(-n3ccnc3)c(C(F)(F)F)c2)cc1 [Cpd 264]		24	h % I (5 μM) [1]: 48%
O=C(CCc1ccc(SC(F)(F)F)cc1)Nc1ccc(-n2cnc(Cl)c2Cl)c(C(F)(F)F)c1 [Cpd 239]	358		inhibition at 1 µM [1]: 88%
CC(C)(C)c1ccc(CCC(=O)Nc2ccc(-c3cccc(CO)c3)c(CO)c2)cc1 [Cpd 95]			Emax at 6 µM (agonist response, 6 μM, read-out: % Response Relative to EC80 of Capsaicin (6 μM)): 127%; EC50 (agonist-induced Ca2+ increase, read-out: h EC50): 248 nM; inhibition at 1 µM [1]: 40%
CC(C)(C)c1ccc(CCC(=O)Nc2ccccc2-c2ccccc2O)cc1 [Cpd 8]			h % I (10 μM) (inhibition of capsaicin response, 10 μM): 45%
COc1cccc(-c2ncc(NC(=O)CCc3ccc(C(C)(C)C)cc3)cc2C)c1 [Cpd 259]			inhibition at 5 µM [1]: 90%
O=C(CCc1ccc(C(F)(F)F)cc1)Nc1ccc(-c2noc(C(F)(F)F)n2)c(C(F)(F)F)c1 [Cpd 265, 3-(4-Trifluoromethyl-phenyl)-N-[3-trifluoromethyl-4-(5-trifluoromethyl-[1,2,4]oxadiazol-3-yl)-phenyl]-propionamide]			inhibition at 1 µM [1]: 18%; inhibition at 5 µM [1]: 63%
CC(C)(C)c1ccc(CCC(=O)Nc2cc(F)c(-c3ccc(CO)cc3)c(F)c2)cc1 [Cpd 91]			% Response Relative to EC80 of Capsaicin (6 μM) (agonist response, 6 μM): 22%
O=C(CCc1ccc(C(F)(F)F)cc1)Nc1cnc(-c2cccnc2)c(C(F)(F)F)c1 [Cpd 249]	613		inhibition at 5 µM [1]: 100%
O=C(CCc1ccc(F)cc1)Nc1ccc(-n2cnc(Cl)c2Cl)c(C(F)(F)F)c1 [Cpd 243]	440		inhibition at 1 µM [1]: 92%
O=C(/C=C/c1ccc(C(F)(F)F)cn1)Nc1ccc(-n2cnc(Cl)c2Cl)c(C(F)(F)F)c1 [Cpd 235, trans-N-[4-(4,5-Dichloro-imidazol-1-yl)-3-trifluoromethyl-phenyl]-3-(5-trifluoromethyl-pyridin-2-yl)-acrylamide]	294		inhibition at 1 µM [1]: 99%
Cc1nccn1-c1ccc(NC(=O)CCc2ccc(C(F)(F)F)cc2)cc1C(F)(F)F [Cpd 267]		20	
Cc1cc(NC(=O)CCc2ccc(SC(F)(F)F)cc2)cnc1-n1cnc(Cl)c1Cl		41	
O=C(CCc1ccc(C(F)(F)F)cc1)Nc1cnc(-c2ccccc2O)c(C(F)(F)F)c1 [Cpd 213]	64.5		inhibition at 5 µM [1]: 100%
COC(=O)c1cn(-c2ccc(NC(=O)CCc3ccc(C(F)(F)F)cc3)cc2C(F)(F)F)cn1 [Cpd 271]		26	
CC(C)(C)c1ccc(CCC(=O)Nc2cc(F)c(-c3cccc(O)c3)c(F)c2)cc1 [Cpd 89]			h % I (5 μM) [1]: 65%

Now from value to compound, other results behind:

IC50 [nM]	h % I (1 μM) [1] [%]	Structure (SMILES)	further results
388		CC(C)(C)c1ccc(CCC(=O)Nc2ccc(-c3ccccn3)c(F)c2)cc1 [Cpd 173]	
193		Cc1cc(NC(=O)CCc2ccc(C(C)(C)C)cc2)cnc1-c1cccnc1 [Cpd 164, 3-(4-tert-butyl-phenyl)-N-(3-methyl-[2,3′]bipyridinyl-5-yl)-propionamide]	inhibition at 5 µM [1]: 99%
1560		CC(C)(C)c1ccc(CCC(=O)Nc2cc(F)c(-c3cccnc3)c(F)c2)cc1 [Cpd 168]	inhibition at 5 µM [1]: 95%
73		Cc1cc(NC(=O)CCc2ccc(C(C)(C)C)cc2)cnc1-c1ccncc1 [Cpd 165, 3-(4-tert-butyl-phenyl)-N-(3-methyl-[2,4′]bipyridinyl-5-yl)-propionamide]	inhibition at 5 µM [1]: 99%
	1	CC(C)(C)c1ccc(CCC(=O)Nc2cnc(-c3cccc(O)c3)cn2)cc1 [Cpd 184]	h % I (5 μM) [1]: 14%
	37	CC(C)(C)c1ccc(CCC(=O)Nc2ccc(-c3cccnc3)c(CO)c2)cc1 [Cpd 170]	% Response Relative to EC80 of Capsaicin (6 μM) (agonist response, 6 μM): 101%
36		Cc1cc(NC(=O)CCc2ccc(C(C)(C)C)cc2)cnc1-c1cccc(O)c1 [Cpd 161, 3-(4-tert-butyl-phenyl)-N-[6-(3-hydroxy-phenyl)-5-methyl-pyridin-3-yl]-propionamide]	inhibition at 5 µM [1]: 94%
1710		Cc1cc(NC(=O)CCc2ccc(C(C)(C)C)cc2)cc(C)c1-c1ccc(CO)cc1 [Cpd 88]	inhibition at 5 µM [1]: 84%
295		Cc1cc(NC(=O)CCc2ccc(C(C)(C)C)cc2)cnc1-c1ccccn1 [Cpd 177]	
97		Cc1cc(NC(=O)CCc2ccc(C(C)(C)C)cc2)cnc1-c1ccc(CO)cc1 [Cpd 163, 3-(4-tert-butyl-phenyl)-N-[6-(4-hydroxymethyl-phenyl)-5-methyl-pyridin-3-yl]-propionamide]	inhibition at 5 µM [1]: 100%
400		CC(C)(C)c1ccc(CCC(=O)Nc2ccc(-c3cccnc3)c(F)c2)cc1 [Cpd 181]	
2890		Cc1cc(NC(=O)CCc2ccc(C(C)(C)C)cc2)cc(C)c1-c1ccccn1 [Cpd 174]	
	4	CC(C)(C)c1ccc(CCC(=O)Nc2cnc(-c3ccncc3)cn2)cc1 [Cpd 188]	h % I (5 μM) [1]: 33%
	6	CC(C)(C)c1ccc(CCC(=O)Nc2cnc(-c3ccc(CO)cc3)cn2)cc1 [Cpd 186]	h % I (5 μM) [1]: 39%
2860		Cc1cc(NC(=O)CCc2ccc(C(C)(C)C)cc2)cc(C)c1-c1cccnc1 [Cpd 166]	inhibition at 5 µM [1]: 76%
109		Cc1cc(NC(=O)CCc2ccc(C(C)(C)C)cc2)cc(C)c1-c1cccc(O)c1 [Cpd 86, 3-(4-tert-butyl-phenyl)-N-(3′-hydroxy-2,6-dimethyl-biphenyl-4-yl)-propionamide]	inhibition at 5 µM [1]: 97%
857		Cc1cc(NC(=O)CCc2ccc(C(C)(C)C)cc2)cc(C)c1-c1ccc(O)cc1 [Cpd 87]	inhibition at 5 µM [1]: 92%
	1	CC(C)(C)c1ccc(CCC(=O)Nc2cnc(-c3ccccc3O)cn2)cc1 [Cpd 183]	h % I (5 μM) [1]: 9%
126		Cc1cc(NC(=O)CCc2ccc(C(C)(C)C)cc2)cnc1-c1ccc(O)cc1 [Cpd 162, 3-(4-tert-butyl-phenyl)-N-[6-(4-hydroxy-phenyl)-5-methyl-pyridin-3-yl]-propionamide]	inhibition at 5 µM [1]: 99%
142		Cc1cc(NC(=O)CCc2ccc(C(C)(C)C)cc2)ccc1-c1ccccn1 [Cpd 172]	
